Values joined by “and” are separate entries in the source; they are usually repeats but may differ in a detail not shown here. Equal values may be shown once.
Target: T1, HIV-1 protease (Human immunodeficiency virus type 1 group M subtype B, UniProt P04585)
T1 construct: The HIV-1 protease is composed of 99 amino acids
Assay: In vitro HIV-1 protease assay
Type: biochemical
Settings: for IC50: purified HIV-1 protease 15 picomolar, peptide substrate 440 micromolar, pH 5.5, 30° C., 60 minutes, HPLC fluorescence detection; for fold higher biological activity than the corresponding SRR (C4) diastereomer: SRS compound vs its SRR diastereomer (4 vs 3, 6 vs 5, 17 vs 16, 13 vs 12, 19 vs 18, 23 vs 22, 21 vs 20); for biological activity compared with another named compound, in words: comparator named in the value
Protocol: Compounds were evaluated for the ability to inhibit the enzymatic activity of HIV-1 protease in an in vitro assay. Protease activity was assessed in reactions catalyzed by purified HIV-1 protease at a concentration of 15 picomolar in buffer (50 mM sodium acetate, pH 5.5, 100 mM NaCl, 1 mg/mL bovine serum albumin) using a peptide substrate with sequence Val-Ser-Gln-Asn-(beta-naphthylalanine)-Pro-IIe-Val at a concentration of 440 micromolar in a final volume of 80 microliters. Compounds in DMSO stock were added to a final DMSO concentration of 2.5% and preincubated with enzyme prior to the initiation of the reaction by addition of substrate. Reactions were incubated at 30° C. for 60 minutes and were then quenched by the addition of 120 microliters 10% H3PO4. The amount of product formed was determined using high performance liquid chromatography with a Vydac C18 column and fluorescence detection of product. Percent inhibition was determined relative to control reactions without inhibitor, and half maximal inhibitory concentration (IC50) values were determined using a standard four parameter fit to the inhibition data. The IC50 is a quantitative measure of the effectiveness of a compound in inhibiting biological or biochemical function that indicates how much a particular compound or other substance is needed to inhibit a given biological process (or component of a process) by half.

C[C@H]1Cc2cc(F)ccc2S(=O)(=O)N(C[C@@H](O)[C@H](Cc2ccccc2)NC(=O)C2CN(c3ccccc3)C(=O)O2)C1 (stereo partly drawn) [Compound 24] was tested, and the “biological activity (HIV-1 protease inhibition) in words” value was “highly active” and the IC50 was 176 nM.

C[C@H]1Cc2cc(F)ccc2S(=O)(=O)N(C[C@@H](O)[C@H](Cc2ccccc2)NC(=O)OC(C)(C)C)C1 [Compound 13] was tested, and the “fold higher biological activity than the corresponding SRR (C4) diastereomer” value was about 132 fold, the “biological activity compared with another named compound, in words” value was “higher biological activity than Compound 15” and the IC50 was 119 nM.

With C[C@@H]1Cc2ccccc2S(=O)(=O)N(C[C@@H](O)[C@H](Cc2ccccc2)NC(=O)OC(C)(C)C)C1 [Compound 14] the IC50 was 5470 nM.

With CCOC(=O)N[C@@H](Cc1ccccc1)[C@H](O)CN1C[C@@H](c2ccccc2)Cc2ccccc2S1(=O)=O [Compound 11] the “biological activity compared with another named compound, in words” value was “higher biological activity than that of Compound 10” and the IC50 was 864 nM.

C[C@@H]1Cc2ccc(C(F)(F)F)cc2S(=O)(=O)N(C[C@@H](O)[C@H](Cc2ccccc2)NC(=O)OC(C)(C)C)C1 [Compound 20] showed an IC50 of 8300 nM.

CC(C)(C)OC(=O)N[C@@H](Cc1ccccc1)[C@H](O)CN1CCCc2ccccc2S1(=O)=O [Compound 1] was tested, and the “biological activity compared with another named compound, in words” value was “much less active when compared to Compound 4” and the IC50 was 2800 nM and 3050 nM.

With C=CCOC(=O)N[C@@H](Cc1ccccc1)[C@H](O)CN1C[C@@H](c2ccccc2)Cc2ccccc2S1(=O)=O [Compound 9] the “biological activity compared with another named compound, in words” value was “higher biological activity than that of Compound 3” and the IC50 was 470 nM.

C=CCOC(=O)N[C@@H](Cc1ccccc1)[C@H](O)CN1C[C@@H](C)Cc2ccccc2S1(=O)=O [Compound 4] was tested, and the “fold higher biological activity than the corresponding SRR (C4) diastereomer” value was “approximately 40 fold” and the IC50 was 157 nM.

With CCOC(=O)N[C@@H](Cc1ccccc1)[C@H](O)CN1C[C@@H](C)Cc2ccccc2S1(=O)=O [Compound 6] the “fold higher biological activity than the corresponding SRR (C4) diastereomer” value was “approximately 54 fold” and the IC50 was 199 nM.

For CC(C)(C)OC(=O)N[C@@H](Cc1ccccc1)[C@H](O)CN1CC(c2ccccc2)Cc2ccccc2S1(=O)=O (mixture of isomers) [Compound 7], the “biological activity compared with another named compound, in words” value was “biological activity higher than that of Compound 1” and the IC50 was 455 nM.

With COc1ccc2c(c1)C[C@@H](C)CN(C[C@@H](O)[C@H](Cc1ccccc1)NC(=O)OC(C)(C)C)S2(=O)=O [Compound 22] the “biological activity (HIV-1 protease inhibition) in words” value was “not active” and the IC50 was 6100 nM.

CC1Cc2ccccc2S(=O)(=O)N(C[C@@H](O)[C@H](Cc2ccccc2)NC(=O)OC(C)(C)C)C1 (mixture of isomers) [Compound 2] was tested, and the “fold greater activity than compound 1 (R=H)” value (mixture of two C4 diastereomers vs compound 1) was “ten-fold greater activity” and the IC50 was 240 nM and 220 nM.

For C[C@H]1Cc2cc(C(F)(F)F)ccc2S(=O)(=O)N(C[C@@H](O)[C@H](Cc2ccccc2)NC(=O)OC(C)(C)C)C1 [Compound 19], the “biological activity (HIV-1 protease inhibition) in words” value was “not very active”, the “fold higher biological activity than the corresponding SRR (C4) diastereomer” value was about 18 fold and the IC50 was 1120 nM.

For COc1ccc2c(c1)C[C@H](C)CN(C[C@@H](O)[C@H](Cc1ccccc1)NC(=O)OC(C)(C)C)S2(=O)=O [Compound 23], the “biological activity (HIV-1 protease inhibition) in words” value was “excellent activity”, the “fold higher biological activity than the corresponding SRR (C4) diastereomer” value was about 57 fold and the IC50 was 107 nM.

Molecule CCOC(=O)N[C@@H](Cc1ccccc1)[C@H](O)CN1C[C@H](c2ccccc2)Cc2ccccc2S1(=O)=O [Compound 10] has an IC50 of 2440 nM.

C[C@@H]1Cc2cc(F)ccc2S(=O)(=O)N(C[C@@H](O)[C@H](Cc2ccccc2)NC(=O)OC(C)(C)C)C1 [Compound 12] gave an IC50 of 15700 nM.

For C[C@H]1Cc2ccccc2S(=O)(=O)N(C[C@@H](O)[C@H](Cc2ccccc2)NC(=O)OC(C)(C)C)C1 [Compound 15], the “biological activity compared with another named compound, in words” value was “higher biological activity than that of Compound 14” and the IC50 was 169 nM.

C=CCOC(=O)N[C@@H](Cc1ccccc1)[C@H](O)CN1C[C@H](C)Cc2ccccc2S1(=O)=O [Compound 3] showed an IC50 of 5960 nM.

For C[C@H]1Cc2ccc(C(F)(F)F)cc2S(=O)(=O)N(C[C@@H](O)[C@H](Cc2ccccc2)NC(=O)OC(C)(C)C)C1 [Compound 21], the “fold higher biological activity than the corresponding SRR (C4) diastereomer” value was about 14 fold and the IC50 was 612 nM.

CCOC(=O)N[C@@H](Cc1ccccc1)[C@H](O)CN1C[C@H](C)Cc2ccccc2S1(=O)=O [Compound 5] showed an IC50 of 10800 nM.

In the case of C=CCOC(=O)N[C@@H](Cc1ccccc1)[C@H](O)CN1C[C@H](c2ccccc2)Cc2ccccc2S1(=O)=O [Compound 8], the “biological activity compared with another named compound, in words” value is reported as “lower biological activity than that of Compound 9” and the IC50 is reported as 3260 nM.

In the case of C[C@H]1Cc2ccccc2S(=O)(=O)N(C[C@@H](O)[C@H](Cc2ccccc2)NC(=O)Oc2ccccc2)C1 [Compound 17], the “fold higher biological activity than the corresponding SRR (C4) diastereomer” value is reported as “approximately 10 fold”, the “biological activity compared with another named compound, in words” value is reported as “higher activity than Compound 16” and the IC50 is reported as 2060 nM.
